Key:
water solubility = format: physicochemical
CDK = details: Knockaert et al.; cited from earlier work
[1] = molecular target: T1, mitochondrial malate dehydrogenase (mMDH) (Homo sapiens, UniProt P40926); details: Knockaert et al.; cited from earlier work
T1 sequence (P40926 25-338): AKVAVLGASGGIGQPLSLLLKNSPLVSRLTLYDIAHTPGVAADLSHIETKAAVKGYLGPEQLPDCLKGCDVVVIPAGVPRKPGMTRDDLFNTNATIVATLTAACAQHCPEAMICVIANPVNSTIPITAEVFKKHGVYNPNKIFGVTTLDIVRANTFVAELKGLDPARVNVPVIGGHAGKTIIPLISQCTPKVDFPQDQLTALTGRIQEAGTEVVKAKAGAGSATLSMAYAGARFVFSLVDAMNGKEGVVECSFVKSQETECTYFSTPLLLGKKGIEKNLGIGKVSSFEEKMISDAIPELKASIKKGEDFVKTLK

water solubility (water solubility) | Structure (SMILES) | inhibition of CDK (CDK) | inhibition of mMDH activity [1]
poor in water solubility | NS(=O)(=O)c1ccc(S(=O)(=O)Nc2cccc3c(Cl)c[nH]c23)cc1 [E7070] |  | 
 | O=C1Cc2c([nH]c3ccccc23)-c2ccccc2N1 [paullone] | inhibitor | inhibits mMDH activity with certainty

Source: patent US8030083B2, “Method of analyzing protein structural affinity relationship” (Eisai R & D Management Co., Ltd., priority 2004, dated 2011)
